# According to article PMC13224050, “Synthesis and characterization of a novel phosphatidylinositol 5-phosphate (PI(5)P) photoaffinity probe” (RSC Chemical Biology, 2026):
# Experiments:
# hUHRF1 = target: T1, hUHRF1 (Homo sapiens, UniProt Q96T88); test: microscale thermophoresis; type: binding
# T1 construct: gene UHRF1; purified recombinant, bacterially expressed; domains UBL, TTD, PHD, SRA, RING
# T1 sequence (Q96T88 1-793): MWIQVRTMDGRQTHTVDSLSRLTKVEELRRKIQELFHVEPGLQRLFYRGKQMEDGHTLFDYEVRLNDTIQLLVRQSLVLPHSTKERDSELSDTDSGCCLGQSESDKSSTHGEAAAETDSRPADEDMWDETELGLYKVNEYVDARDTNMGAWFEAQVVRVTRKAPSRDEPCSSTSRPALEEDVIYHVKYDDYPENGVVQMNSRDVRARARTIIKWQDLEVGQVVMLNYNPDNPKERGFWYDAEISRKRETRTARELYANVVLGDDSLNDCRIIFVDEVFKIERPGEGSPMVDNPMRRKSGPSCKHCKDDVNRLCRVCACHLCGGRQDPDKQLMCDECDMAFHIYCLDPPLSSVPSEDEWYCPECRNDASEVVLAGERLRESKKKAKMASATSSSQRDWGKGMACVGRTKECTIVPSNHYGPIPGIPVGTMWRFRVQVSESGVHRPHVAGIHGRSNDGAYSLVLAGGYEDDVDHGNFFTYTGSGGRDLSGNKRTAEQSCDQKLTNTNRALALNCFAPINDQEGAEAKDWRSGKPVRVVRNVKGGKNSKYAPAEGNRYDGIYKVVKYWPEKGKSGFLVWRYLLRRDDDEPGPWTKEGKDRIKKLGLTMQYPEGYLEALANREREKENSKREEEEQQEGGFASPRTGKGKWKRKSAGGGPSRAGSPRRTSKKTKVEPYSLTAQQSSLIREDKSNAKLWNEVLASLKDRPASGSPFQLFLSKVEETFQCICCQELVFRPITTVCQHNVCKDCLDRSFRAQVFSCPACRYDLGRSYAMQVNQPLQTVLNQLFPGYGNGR
# hTAF3 = target: T2, hTAF3 (Homo sapiens, UniProt Q5VWG9); test: photo-crosslinking with TAMRA click SDS-PAGE; type: binding; conditions: covalent; 365 nm 30 min
# T2 construct: gene TAF3; purified recombinant, bacterially expressed; abstract prints TAF1 instead
# T2 sequence (Q5VWG9 1-929): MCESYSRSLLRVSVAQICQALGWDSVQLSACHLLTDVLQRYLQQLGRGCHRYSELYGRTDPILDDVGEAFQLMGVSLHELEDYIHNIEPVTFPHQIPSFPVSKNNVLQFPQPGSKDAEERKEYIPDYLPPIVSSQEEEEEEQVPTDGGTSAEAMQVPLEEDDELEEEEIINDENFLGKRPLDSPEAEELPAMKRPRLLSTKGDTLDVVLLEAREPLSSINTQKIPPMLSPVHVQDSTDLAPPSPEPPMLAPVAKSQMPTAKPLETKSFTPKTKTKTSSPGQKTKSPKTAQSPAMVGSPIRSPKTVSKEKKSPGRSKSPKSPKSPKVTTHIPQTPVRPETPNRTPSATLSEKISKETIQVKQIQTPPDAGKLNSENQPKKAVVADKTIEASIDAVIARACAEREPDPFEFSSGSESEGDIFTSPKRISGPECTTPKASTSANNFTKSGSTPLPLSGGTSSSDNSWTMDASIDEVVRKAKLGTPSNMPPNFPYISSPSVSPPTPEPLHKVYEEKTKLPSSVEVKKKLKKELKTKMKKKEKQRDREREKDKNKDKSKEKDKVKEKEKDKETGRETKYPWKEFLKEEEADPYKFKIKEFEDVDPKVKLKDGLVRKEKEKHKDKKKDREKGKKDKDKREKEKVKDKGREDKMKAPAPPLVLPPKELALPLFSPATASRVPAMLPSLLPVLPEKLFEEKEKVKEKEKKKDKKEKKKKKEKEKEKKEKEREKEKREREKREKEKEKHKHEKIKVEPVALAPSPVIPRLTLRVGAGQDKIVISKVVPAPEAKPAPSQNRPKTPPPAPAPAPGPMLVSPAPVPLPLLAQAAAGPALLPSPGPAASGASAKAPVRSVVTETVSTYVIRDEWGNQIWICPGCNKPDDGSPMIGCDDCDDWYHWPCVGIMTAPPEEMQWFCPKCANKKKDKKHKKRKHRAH
SMILES,Kd (hUHRF1),photo-crosslinking with TAMRA click SDS-PAGE (hTAF3)
"CCCCCCCCCCCCCCCC(=O)OC[C@H](COP(=O)(O)O[C@H]1[C@H](O)[C@@H](OP(=O)(O)O)[C@H](O)[C@@H](O)[C@H]1O)OC(=O)CCCCCCCCCCCCCCC [compound 1, di-C16 : 0 PI(5)P]",~8.6 µM,–
"C#CCCCCCCCCCCC1(CCC(=O)O[C@H](COC(=O)CCCCCCCCCCCCCCC)COP(=O)(O)O[C@H]2[C@H](O)[C@@H](OP(=O)(O)O)[C@H](O)[C@@H](O)[C@H]2O)N=N1 [compound 9, PI(5)P diazirine probe]",–,confirming that the diazirine probe bound to bacterially expressed recombinant hUHRF1 and hTAF3
